{"source": "patent US20110319338A1", "about": "“PEPTIDES THAT BIND EUKARYOTIC TRANSLATION INITIATION FACTOR 4E” (The Board of Regents of the University of Texas System, priority 2008, published 2011)", "test_system": "ES-2-DualLuc cells", "test": "Cell-based translation assay with bicistronic R-Luc/F-Luc reporter", "settings": "peptide 6 hours, 0.3 to 10 micromoles per liter, relative to cells without peptide", "description": "FIGS. 2A-2F. Inhibition of cap-dependent translation and cell growth by TAT-4EBP fusion peptides. (FIG. 2A) Representation of the pIRES-DualLuc bicistronic construct containing Renilla Luciferase (R-Luc) and firefly luciferase (F-Luc) genes. In (FIG. 2B), R-Luc and F-Luc activities were assayed in ES-2-DualLuc cells following treatment for 24 hours with rapamycin and for 3 hours with cycloheximide with the indicated concentrations of these drugs, and expressed relative to the respective luciferase activities in cells incubated without drug. Cell viability was not affected by rapamycin and cycloheximide under these conditions. In (FIG. 2C), R-Luc and F-Luc activities were assayed in ES-2-DualLuc cells following treatment for 6 hours with the indicated concentrations of peptides, and expressed relative to the respective luciferase activities in cells incubated without peptide. Shown are results of triplicate assays performed independently two times, and the statistical significance of differences in relative R-Luc and F-Luc activities in cells treated with peptide at a concentration of 10 micromoles per liter. (FIG. 2D) Viability of OVCAR-3 cells at 3 days after addition of the indicated concentrations of peptides, expressed relative to viability of cells incubated without peptide. Shown are results of triplicate assays performed in two independent experiments, and statistical significances of differences in viability of cells treated with TAT-4EBP1-WT vs. TAT-4EBP1-MT, and of cells treated with TAT-4EBP2-WT vs. TAT-4EBP2-MT at a concentration of 10 micromoles per liter. (FIG. 2E) OVCAR-3 cells at 3 days after peptide addition (10 micromoles per liter) viewed under phase-contrast microscopy. (FIG. 2F) Flow cytometric analysis of staining of terminal deoxynucleotidyl transferase-mediated dUTP nick end labeling (TUNEL) in OVCAR-3 cells at 3 days after peptide addition (10 micromoles per liter). Cells incubated for 3 days in the absence of peptide in medium with and without serum are included as controls.\nFIGS. 3A-3H. Uptake, binding and inhibitory effects of [DLys6]GnRH-4EBP fusion peptides. (FIG. 3A) Sequences of [DLys6]GnRH, and wild-type and mutant 4EBP1 peptides fused to the agonist. (FIG. 3B) Western blot of GnRH-RI levels in OVCAR-3, ES-2, MDA-MB-231, BJ, HUVEC and SKOV3 cells. (FIG. 3C) Detection of biotinylated peptides in OVCAR-3 and SKOV3 by Texas Red-conjugated streptavidin at 16 hours after peptide addition (3 micromoles per liter). In (FIGS. 3D and 3E), biotinylated peptides were incubated with OVCAR-3 cell lysate as described in FIG. 1. In (FIG. 3D), peptide was pulled down using streptavidin-agarose. Precipitates (P) and supernatants (S) were analyzed by Western blot using eIF4E antibody. In (FIG. 3E), immunoprecipitation was performed using eIF4E antibody, and Western blot performed using eIF4G antibody. (FIG. 3F) R-Luc and F-Luc activities were assayed in ES-2-DualLuc cells at 6 hours after addition of the indicated concentrations of peptides, and are expressed relative to the respective luciferase activities in cells incubated without peptide. Shown are results of triplicate assays performed independently two times, and the statistical significance of differences in relative R-Luc and F-Luc activities in cells treated with peptide at a concentration of 10 micromoles per liter (FIG. 3G) Cells of GnRH-RI-positive and -negative lines were treated with the indicated concentrations of peptides. Viability at 3 days after peptide addition is expressed relative to viability of cells incubated with no peptide. Shown are results of triplicate assays performed in two independent experiments, and statistical significances of differences in viability of cells treated with wild-type vs. mutant [DLys6]GnRH-4EBP1 peptides at a concentration of 10 micromoles per liter. (FIG. 3H) ES-2 and parental SKOV3 cells at 3 days after peptide addition (30 micromoles per liter) viewed under phase-contrast microscopy. […]", "note": "Square brackets hold non-standard residues; d marks the D form. Ends that are not written are not given here."}
{"substance": "[DLys6]GnRH: GnRH agonist with a D-amino acid substitution at position 6; GnRH-RI-targeting moiety (QHWSY[dK]LRPG; not fully specified (residue 1, C-terminus); ends and bridges not checked)", "values": [{"measurement": "cap-dependent translation (R-Luc read-out)", "value": "not inhibited"}]}
